Assay results from patent publication US8536202B2, “Triazole-substituted anthranilamides as pesticides” (Bayer Cropscience AG, priority 2010, dated 2013).
Where two headings read alike, the source gives them in different places.

How the values were obtained:
[1] = log P determination by HPLC on reversed-phase columns (EEC Directive 79/831 Annex V.A8); format: physicochemical; settings: pH 2.7
In short: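 Calibration used unbranched alkan-2-ones of 3 to 16 carbons with known log P, values interpolated linearly from retention times between neighbouring standards. Acidic-range LC-MS run at pH 2.7, eluents aqueous and acetonitrile formic acid 0.1%, linear gradient 10% to 95% acetonitrile.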

[2] = system: two-spotted spider mite (Tetranychus urticae); assay: Tetranychus test, OP-resistant (TETRUR spray treatment); format: in vivo; settings: 100 g/ha, after 6 days
Experimental: (§1) Solvents: 78.0 parts by weight of acetone • • 1.5 parts by weight of dimethylformamide
(§2) Emulsifier: 0.5 part by weight of alkylaryl polyglycol ether
An appropriate preparation of active compound is prepared by mixing 1 part by weight of active compound with the stated amounts of solvent and emulsifier and diluting the concentrate with emulsifier-containing water to the desired concentration. Leaf discs of French bean (Phaseolus vulgaris) infested by all stages of the two-spotted spider mite (Tetranychus urticae) are sprayed with a preparation of active compound at the desired concentration.
After 6 days, the activity in % is ascertained. Here, 100% means that all of the spider mites have been killed; 0% means that no spider mites have been killed.

[3] = system: larvae of the mustard beetle (Phaedon cochleariae); assay: Phaedon test (PHAECO spray treatment); format: in vivo; settings: 168 h, read-out: activity in %
In short: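 Mortality of mustard beetle larvae, expressed as percent killed (100% all, 0% none), assessed 7 days after spraying. Spray liquor made from compound in acetone plus dimethylformamide with alkylaryl polyglycol ether, diluted in emulsifier-containing water to the desired concentration.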

[4] = system: green peach aphid (Myzus persicae); assay: Myzus test (MYZUPE spray treatment), Use Example 4; format: in vivo; settings: 144 h, read-out: activity in %
In short: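 Compound was formulated in acetone/dimethylformamide with alkylaryl polyglycol ether emulsifier and diluted in emulsifier-containing water. It was sprayed onto Chinese cabbage leaf discs infested with all stages of Myzus persicae. Mortality (%) was scored after 6 days, where 100% means all aphids killed.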

[5] = system: caterpillars of the armyworm (Spodoptera frugiperda); assay: Spodoptera frugiperda test (SPODFR spray treatment); format: in vivo; settings: 168 h, read-out: activity in %
In short: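 Percent caterpillar mortality read 7 days after infestation (0% none killed, 100% all killed). Treatment was a spray of the acetone/DMF/emulsifier formulation, water-diluted to test concentration, onto Zea mays leaf discs, allowed to dry before larvae were added.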

Lucilia cuprina larvae = assay: Lucilia cuprina test (LUCICU); format: in vivo; settings: 48 h, read-out: kill in %
Experimental: (§3) Solvent: dimethyl sulphoxide
(§4) An appropriate preparation of active compound is prepared by mixing 10 mg of active compound with 0.5 ml of dimethyl sulphoxide and diluting the concentrate with water to the desired concentration.
Vessels containing horse meat treated with the preparation of active compound at the desired concentration are populated with approximately 20 Lucilia cuprina larvae.
After 2 days, the kill in % is ascertained. Here, 100% means that all of the larvae have been killed; 0% means that no larvae have been killed.

adult Musca domestica = assay: Musca domestica test (MUSCDO); format: in vivo; settings: 48 h, read-out: kill in %
Experimental: as §3
as §4, with “concentration. Vessels containing a sponge treated with the preparation of active compound at the desired concentration are populated with adult Musca domestica.” for “concentration.”
After 2 days, the kill in % is ascertained. Here, 100% means that all of the flies have been killed; 0% means that no flies have been killed.

Boophilus microplus = Boophilus microplus test (BOOPMI injection); format: in vivo; settings: Rhipicephalus microplus, 168 h, 20 μg/animal, after 7 days, read-out: activity in % (no fertile eggs laid)
Experimental: as §3
An appropriate preparation of active compound is prepared by mixing 10 mg of active compound with 0.5 ml of solvent and diluting the concentrate with solvent to the desired concentration. The solution of active compound is injected into the abdomen (Boophilus microplus), and the animals are transferred to dishes and kept in a climatized room. Activity is assessed by deposition of fertile eggs.
After 7 days, the activity in % is assessed. Here, 100% means that none of the ticks has laid fertile eggs.

[6] = system: green peach aphid (Myzus persicae); assay: Myzus test (MYZUPE spray treatment), Use Example 8, comparison with prior art; format: in vivo; settings: 100 g/ha, 6 d
Experimental: as §1, §2
An appropriate preparation of active compound is prepared by mixing 1 part by weight of active compound with the stated amounts of solvents and emulsifier and diluting the concentrate with emulsifier-containing water to the desired concentration.
Leaf discs of Chinese cabbage (Brassica pekinensis) infested by all stages of the green peach aphid (Myzus persicae) are sprayed with a preparation of active compound at the desired concentration. After the desired time, the activity in % is ascertained. Here, 100% means that all of the aphids have been killed; 0% means that no aphids have been killed.

[7] = HPLC on reversed-phase columns (C 18), EEC Directive 79/831 Annex V.A8, read-out: logP

Row | Compound | chromatographic logP [1] | activity in % [2] [%] | pest or weed control at 100 g/ha ([3]; 100 g/ha, after 7 days) [%] | pest or weed control at 100 g/ha ([4]; 100 g/ha, after 6 days) [%] | pest or weed control at 100 g/ha ([5]; 100 g/ha, after 7 days) [%] | pest or weed control at 100 ppm (Lucilia cuprina larvae) [%] | pest or weed control at 100 ppm (adult Musca domestica) [%] | pest or weed control at 0.02 mg (Boophilus microplus) [%] | chromatographic logP [1, 7] | pest or weed control at 100 g/ha [4] [%] | pest or weed control at 100 g/ha [5] [%] | pest or weed control at 100 g/ha [3] [%] | % Activity [6]
1 | CNC(=O)c1cc(C#N)cc(C)c1NC(=O)c1cc(Cn2ncc(C(C)(C)C)n2)nn1-c1ncccc1Cl [Example 39] | 2.89 | 90 | 83 | – | – | – | – | – | – | – | – | – | –
2 | Cc1cc(C#N)cc(C(=O)NC(C)(C)C)c1NC(=O)c1cc(Cn2cc(C3CC3)nn2)nn1-c1ncccc1Cl [Example 50] | 2.57 | 80 | 100 | 90 | 83 | – | – | – | – | – | – | – | –
3 | Cc1cc(C#N)cc(C(=O)NC(C)(C)C)c1NC(=O)c1cc(Cn2ncc(C(F)(F)F)n2)nn1-c1ncccc1Cl [Example 129] | 3.46 | – | 100 | 100 | 100 | 100 | 80 | 100 | – | – | – | – | –
4 | Cc1cc(Cl)cc(C(N)=O)c1NC(=O)c1cc(Cn2ncc(C(F)(F)F)n2)nn1-c1ncccc1Cl [Example 134] | 2.7 | – | 100 | 100 | 100 | 100 | 100 | 100 | – | – | – | – | –
5 | CNC(=O)c1cc(Br)cc(C)c1NC(=O)c1cc(Cn2ncc(C(F)(F)F)n2)nn1-c1ncccc1Cl [Example 172] | 3.1 | – | 100 | 100 | 100 | 100 | 80 | 100 | – | – | – | – | –
6 | Cc1cc(Cl)cc(C(N)=O)c1NC(=O)c1cc(Cn2cc(C(F)(C(F)(F)F)C(F)(F)F)nn2)nn1-c1ncccc1Cl [Example 231] | 3.16 | – | 100 | 100 | 100 | 100 | 80 | 100 | – | – | – | – | –
7 | Cc1cc(Cl)cc(C(=O)NC2CC2)c1NC(=O)c1cc(Cn2cc(C(F)(C(F)(F)F)C(F)(F)F)nn2)nn1-c1ncccc1Cl [Example 232] | 3.61 | – | 100 | 80 | 100 | 100 | 100 | 100 | – | – | – | – | –
8 | Cc1cc(I)cc(C(N)=O)c1NC(=O)c1cc(Cn2cc(C(F)(C(F)(F)F)C(F)(F)F)nn2)nn1-c1ncccc1Cl [Example 239] | 3.35 | – | 100 | 100 | 100 | 100 | 100 | 100 | – | – | – | – | –
9 | CNC(=O)c1cc(Cl)cc(Cl)c1NC(=O)c1cc(Cn2cc(C(F)(C(F)(F)F)C(F)(F)F)nn2)nn1-c1ncccc1Cl [Example 241] | 3.31 | – | 100 | 100 | 100 | 100 | 80 | 100 | – | – | – | – | –
10 | Cc1cc(Cl)cc(C(N)=O)c1NC(=O)c1cc(Cn2ncc(C(F)(C(F)(F)F)C(F)(F)F)n2)nn1-c1ncccc1Cl [Example 263] | 3.48 | – | 100 | 80 | 100 | 100 | 100 | 100 | – | – | – | – | –
11 | Cc1cc(C#N)cc(C(=O)NC2(C3CC3)CC2)c1NC(=O)c1cc(Cn2ncc(C(F)(F)F)n2)nn1-c1ncccc1Cl [Example 281] | 3.37 | – | 100 | 100 | 100 | 100 | 100 | 100 | – | – | – | – | –
12 | Cc1cc(Cl)cc(C(=O)NC2(C3CC3)CC2)c1NC(=O)c1cc(Cn2ncc(C(F)(F)F)n2)nn1-c1ncccc1Cl [Example 282] | 3.78 | – | 100 | 80 | 100 | 100 | 80 | 100 | – | – | – | – | –
13 | CSC[C@H](C)NC(=O)c1cc(I)cc(C)c1NC(=O)c1cc(Cn2cc(C(F)(F)C(F)(F)C(F)(F)F)nn2)nn1-c1ncccc1Cl [Example 321] | – | 90 | – | – | – | – | – | – | 4.27 | 100 | 100 | 100 | –
14 | Cc1cc(I)cc(C(=O)NC2CC2)c1NC(=O)c1cc(Cn2ncc(C(F)(F)C(F)(F)C(F)(F)F)n2)nn1-c1ncccc1Cl [Example 375] | – | 90 | – | – | – | – | – | – | 4.23 | – | 100 | 100 | –
15 | Cc1cc(Cl)cc(C(N)=O)c1NC(=O)c1cc(Cn2cc(C(F)(F)C(F)(F)F)nn2)nn1-c1ncccc1Cl [drawing 449] | – | – | – | – | – | – | – | – | – | – | – | – | 100 6 d %
16 | Cc1cc(Cl)cc(C(N)=O)c1NC(=O)c1cc(Cn2nnc(C(F)(F)C(F)(F)F)n2)nn1-c1ncccc1Cl [reference compound] | – | – | – | – | – | – | – | – | – | – | – | – | 80 6 d %
